# Measured values as given in US6046192A, “Phenylethanolaminotetralincarboxamide derivatives” (Kissei Pharmaceutical Co., Ltd., priority 1996, dated 2000).
# pEC50: −log10 of the molar value.
# Assays:
# β1 -adrenergic receptor = test: Atrial contraction of isolated rat atrium (β1-adrenergic receptor stimulating activity); conditions: isolated rat atrium (SD male), Magnus method
# Method: Thus, the compounds of the present invention have a markedly weaker β1 -adrenergic receptor stimulating effect in comparison with the aforementioned β2 -adrenergic receptor stimulating effect.
# Action of Drugs on the Atrial Contraction of Isolated Rat Atrium
# The atria of SD male rats (350 to 400 g in body weight) were isolated and the experiment was conducted according to the Magnus method. The preparations with a tension of 1 g were exposed to Krebs-Henseleit solution maintained at 37° C. and gassed with a mixture of 95% of oxygen and 5% of carbon dioxide. The atrial contraction was induced isometrically via a pressure transducer and recorded on a rectigram. After addition of the drug, its efficacy was evaluated as drug concentration which increases 20 beats per minute of heart rate (i.e., EC20 value).
# β2 -adrenergic receptor = biological target: T1, β2 -adrenergic receptor (Rattus norvegicus, UniProt P10608); test: Spontaneous contractions of isolated pregnant rat myometrium (β2-adrenergic receptor stimulating activity); conditions: isolated pregnant rat uterus (SD, pregnancy day 21), Magnus method; read-out: EC50 value (activity to relax 50% of the spontaneous contractions of rat myometrium)
# T1 construct: longitudinal uterine muscle strips (about 15 mm in length and about 5 mm in width) free from the basal plate were prepared; from tissue; host or cells: longitudinal uterine muscle strips of pregnant SD rats (pregnancy day 21)
# T1 sequence (P10608 whole entry): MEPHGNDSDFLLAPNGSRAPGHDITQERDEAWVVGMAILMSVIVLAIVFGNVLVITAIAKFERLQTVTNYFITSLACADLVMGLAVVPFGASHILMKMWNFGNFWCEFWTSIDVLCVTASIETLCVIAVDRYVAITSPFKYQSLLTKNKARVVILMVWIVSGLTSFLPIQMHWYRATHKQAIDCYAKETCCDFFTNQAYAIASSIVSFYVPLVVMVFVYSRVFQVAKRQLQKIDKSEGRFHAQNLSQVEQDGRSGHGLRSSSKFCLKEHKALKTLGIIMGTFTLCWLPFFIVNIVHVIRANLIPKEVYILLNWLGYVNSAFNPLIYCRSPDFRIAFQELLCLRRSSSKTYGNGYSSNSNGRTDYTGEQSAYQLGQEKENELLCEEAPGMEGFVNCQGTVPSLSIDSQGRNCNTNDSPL
# Method: Thus, the compounds of the present invention have a markedly potent β2 -adrenergic receptor stimulating effect and therefore are remarkably useful as β2 -adrenergic receptor stimulating agents.
# Action of Drugs on the Spontaneous Contractions of Isolated Pregnant Rat Myometrium
# The uteri of pregnant SD rats (pregnancy day 21) were isolated and longitudinal uterine muscle strips (about 15 mm in length and about 5 mm in width) free from the basal plate were prepared. The experiment was conducted according to the Magnus method. The preparations with a tension of 1 g were exposed to Locke-Ringer solution maintained at 37° C. and gassed with a mixture of 95% of oxygen and 5% of carbon dioxide. Spontaneous contractions of myometrium were induced isometrically via a pressure transducer and recorded on a rectigram. The drug efficacy was evaluated as 50% inhibitory drug concentration (i.e., EC50 value) by comparing the total degree of uterine contraction during 5 minutes before the addition of the drug with the total degree of uterine contraction during 5 minutes after the addition of the drug.
# ICR mice = test: Acute toxicity; format: in vivo; conditions: female ICR mice, intravenous, 50 mg/kg in saline
# Method: To 4 female ICR mice of 4 weeks age was administered intravenously 2-[(2S)-2-[[(2R)-2-hydroxy-2-(4-hydroxyphenyl)-ethyl]amino]-1,2,3,4-tetrahydronaphthalen-7-yloxy]-N,N-dimethylacetamide dissolved in saline at dose of 50 mg/kg. No death of animals was observed during 24 hours after the administration.
smiles,measurement,setting,value
"CN(C)C(=O)COc1ccc2c(c1)C[C@@H](NC[C@H](O)c1ccc(O)cc1)CC2 [2-[(2S)-2-[[(2R)-2-Hydroxy-2-(4-hydroxyphenyl)ethyl]-amino]-1,2,3,4-tetrahydronaphthalen-7-yloxy]-N,N-dimethylacetamide]",EC20 value (activity to increase rat heart rate 20 beats per minute),β1 -adrenergic receptor,1.6×10^-6 molar concentration
same,pEC50,β2 -adrenergic receptor,7.82
same,death of animals during 24 hours after the administration,ICR mice,No death
